How the values were obtained:
Format in all cases: physicochemical
[1] = Color fastness against light, Xe lamp irradiation of recorded image; settings: Xe lamp 17,000 lux, 3 days; portion with initial reflection density 1.0
Description: Next, the thermal transfer image accepting materials after such recording were irradiated with a Xe lamp (17,000 lux) for 3 days to evaluate the color fastness. More specifically, a portion showing a status-A reflection density of 1.0 before the irradiation was again measured for the status-A reflection density after the irradiation, which was expressed in a residual rate (in percent) to the pre-irradiation reflection density.

[2] = Suitability in ink production (solubility of coating composition for dye donating layer)
Description: Suitability in Ink Production:
∘ coating composition for the thermal transfer dye donating layer has a good solubility;
Δ time-consuming heating is necessary to dissolve the coating composition for the thermal transfer dye donating layer; and
X incomplete solubilization of the coating composition for the thermal transfer dye donating layer having a undissolved portion of the dye crystal.

[3] = Absorption characteristic in ethyl acetate
Description: FIG. 1 is a spectrum chart showing an absorption characteristic in ethyl acetate of Compound 9 of the present invention where optical density of the transmitted light through a cell having the light path length of 1 cm is 1.0. Wave lengths giving the maximum absorption (λmax) are 428 nm for Compound 9, 440 nm for Compound 18, 438 nm for Compound 31, 442 nm for Compound 32, 435 nm for Compound 33 and 434 nm for Compound 3.

Compound | Color Fastness (residual rate of status-A reflection density) [1] | Suitability for ink production (in words) [2] | Wave length giving the maximum absorption (λmax) [3]
CCSc1nsc(N=Nc2c(C)nn3c(C(C)(C)C)n[nH]c23)n1 [Comparative Compound “a”, reference compound] | 89% | inferior | 
CCCc1nn2nc(C(C)(C)C)c(N=Nc3nc(SC)ns3)c2[nH]1 [Compound 5] | 91% |  | 
Cc1nn2nc(C(C)(C)C)c(N=Nc3nc(-c4ccccc4)ns3)c2[nH]1 [Compound 10] | 90% |  | 
CCOc1nn2nc(C)[nH]c2c1N=Nc1nc(-c2ccc(C(F)(F)F)cc2)ns1 [Compound 11] | 88% |  | 
COc1ccc(-c2nsc(N=Nc3c(C(C)(C)C)nn4nc(C(C)C)[nH]c34)n2)cc1 [Compound 20] | 88% |  | 
CSc1nsc(N=Nc2c(C(C)(C)C)nn3nc(C(C)CN4C(=O)C=CC4=O)[nH]c23)n1 (stereo not drawn) [Compound 25] | 90% |  | 
CCS(=O)(=O)c1nsc(N=Nc2c(C(C)(C)C)nn3nc(C(C)C)[nH]c23)n1 [Compound 32] | 93% |  | 442 nm

Continued, values first:

Color Fastness (residual rate of status-A reflection density) [1] | Suitability for ink production (in words) [2] | Wave length giving the maximum absorption (λmax) [3] | Compound
 |  | 434 nm | CCSc1nsc(N=Nc2c(C)nn3nc(C)[nH]c23)n1 [Compound 3]
90% |  |  | CSc1nsc(N=Nc2c(C(C)(C)C)nn3nc(C(C)C)[nH]c23)n1 [Compound 4]
90% |  |  | CSc1nsc(N=Nc2c(-c3ccccc3)nn3nc(C(C)C)[nH]c23)n1 [Compound 7]
92% |  | 428 nm | CC(C)c1nn2nc(-c3ccccc3Cl)c(N=Nc3nc(-c4ccccc4)ns3)c2[nH]1 [Compound 9]
89% |  |  | CSc1nsc(N=Nc2c(C(C)(C)C)nn3nc(C(C)CN4C(=O)c5ccccc5C4=O)[nH]c23)n1 (stereo not drawn) [Compound 15]
91% |  | 440 nm | CCS(=O)(=O)c1nsc(N=Nc2c(-c3ccccc3Cl)nn3nc(C(C)C)[nH]c23)n1 [Compound 18]
87% |  |  | Cc1nn2nc(C(C)C)c(N=Nc3nc(-c4ccccc4)ns3)c2[nH]1 [Compound 21]
90% |  | 438 nm | CCSc1nsc(N=Nc2c(C(C)(C)C)nn3nc(C(C)C)[nH]c23)n1 [Compound 31]
91% |  |  | CCSc1nsc(/N=N/c2c(-c3ccccc3Cl)nn3nc(C(C)C)[nH]c23)n1 [Compound 34]

Source: patent US6458194B1, “Azo dye compound having 1,2,4-triazole as the azo component” (Fuji Photo Film Co., Ltd., priority 1999, dated 2002)
